Test results reported in patent publication US20260109732A1, “LIPID AMINES” (ModernaTX, Inc., priority 2021, published 2026).
Where a name gives a salt, the structure may show the parent alone.

What was measured:
[1] = Encapsulation of mRNA nanoparticles with lipid amines using Ribogreen assay; type: physicochemical; conditions: CFTR mRNA nanoparticle with lipid amine
Experimental: (§1) Lipids are dissolved in ethanol at a concentration of 24 mg/mL and molar ratios of 49.0:11.2:39.3:0.5 (IL1:DSPC:cholesterol:PEG-DMG-2K) and mixed with the acidification buffer (45 mM acetate buffer at pH 4). The lipid solution and acidification buffer are mixed using a multi-inlet vortex mixer at a 3:7 volumetric ratio of lipid:buffer for mixer 1 and mixer 2 and a 1:3 volumetric ratio of lipid:buffer (25% ethanol) for mixer 3. After a 5 second residence time, the resulting nanoparticles are mixed with 55 mM sodium acetate at pH 5.6 at a volumetric ratio of 5:7 of nanoparticle:buffer. See Table 2a for mixing parameters. The resulting dilute nanoparticles are then buffer exchanged and concentrated using tangential flow filtration (TFF) into a final buffer containing 5 mM sodium acetate pH 5.0. Then a 70% sucrose solution in 5 mM acetate buffer at pH 5 is subsequently added.
(§2) The resulting nanoparticles at a lipid concentration of 7.33 mg/mL in 5 mM acetate (pH 5) and 75 g/L sucrose are mixed with mRNA (luciferease or CFTR) at a concentration of 0.625 mg/mL in 42.5 mM sodium acetate pH 5.0, with N:P of 4.93. The nanoparticle solution and nanoparticles are mixed using a multi-inlet vortex mixer at a 3:2 volumetric ratio of nanoparticle:mRNA. Once loaded with mRNA, these intermediate nanoparticles undergo a 300 second residence time prior addition of neutralization buffer containing 120 mM TRIS pH 8.12 at a volumetric ratio of 5:1 of nanoparticle:buffer.
(§3) For HeLa studies evaluating luciferase protein expression, PEG-DMG-2K dissolved in a 20 mM TRIS buffer (pH 7.5) is added to the neutralized intermediate nanoparticle solution at a ratio of 1:6, bringing the solution to the final molar ratios of IL1:DSPC:cholesterol:PEG-DMG-2K of 48.5:11.1:38.9:1.5%. This nanoparticle formulation is then modified with lipid amines. In a typical example, nanoparticle formulation at a concentration of 0.18 mg/mL mRNA and a 0.56 mL volume is modified with lipid amine SA50 (467.2 nmol) prepared in buffer containing 20 mM TRIS, 14.3 mM sodium acetate, 32 g/L sucrose and 140 mM NaCl-pH 7.5 at a volumetric ratio of 1:1 of nanoparticle:buffer.
(§4) For HeLa studies evaluating CFTR protein expression, the intermediate nanoparticle formulation (1 mL, 0.415 mg mRNA) is mixed with a buffer containing 20 mM TRIS (pH 7.5), 0.9 mg/mL PEG-DMG-2K and lipid amine SA50 (647.1 nmol) at a volumetric ratio of 6:1 of nanoparticle:buffer. The resulting nanoparticle suspension undergoes concentration using a centrifugal filtration device (100 kDa molecular weight cut-off) and is diluted in running buffer (20 mM TRIS, 14.3 mM sodium acetate, and 32 g/L sucrose, pH 7.5) with a 300 mM NaCl solution to a final buffer matrix containing 70 mM NaCl.
(§5) Both resulting nanoparticle suspensions are filtered through a 0.8/0.2 μm capsule filter and filled into glass vials at an mRNA strength of about 0.1-1 mg/mLBliophysical data (Diameter and PDI from DLS measurements and Encapsualtion using Ribogreen assay) for both luciferase and CFTR mRNA nanoparticles with lipid amines is shown in Tables 2c and d, respectively.

HeLa cells = assay: CFTR Protein Expression Assay in HeLa Cells; type: cell-based, Human; conditions: LNPs encapsulating CFTR mRNA, N=4 wells; 5 h serum-free then 24 h; immunofluorescence vs PBS control
Experimental: as §4
Lipid nanoparticle compositions were prepared in a manner analogous to that in example 2. To evaluate LNP cellular uptake and protein expression In Vitro, HeLa cells from ATCC.org (ATCC CCL-2) are used. The cells are cultured in complete Minimum Essential Medium (MVEM) and are plated in 96 well Cell Carrier Ultra plate with PDL coated surface (PerkinElmer) prior to running an experiment.
Buffer control (PBS) and LNPs encapsulating cystic fibrosis transmembrane conductance regulator (CFTR) mRNA were dosed with MEM media in the absence of serum (N=4 replicate wells). LNP transfected cells were incubated for 5 h, followed by media removal and supplementation with complete MEM media. Cells were further incubated in complete MEM media overnight (24 h).
Following 24 hr incubation, the cells were fixed with PFA and processed for immunofluorescence (IF) using an anti-CFTR rabbit monoclonal antibody. Briefly, the cells were permeabilized with 0.5% TX-100 for 10 min, blocked with 3% bovine serum albumin (BSA)+PBST for 1 hr at room temperature, and incubated with primary anti-CFTR monoclonal antibody overnight at 4° C. Following primary antibody incubation, the cells were incubated with Alexa 488 conjugated secondary antibody for 30 mi and stained with DAPI and HCS CellMask Blue stain. Between different incubation steps the cells were either washed with PBS or PBST. Cells were imaged using Opera Phoenix spinning disk confocal microscope (PerkinElmer), and CFTR protein expression was detected using the 488 nm channel. The image analysis was performed in Harmony 4.9, with main analysis output being CFTR intensity per cell. The results shown in Table 3b show fold-change in CFTR signal intensity per cell compared to buffer (PBS) control (NA=not available).

[2] = Diameter and PDI from DLS measurements of mRNA nanoparticles with lipid amines; type: physicochemical; conditions: CFTR mRNA nanoparticle with lipid amine
Experimental: as §1, §2, §3, §4, §5

| SMILES | % Encapsulation (Ribogreen) [1] | Average fold-change in CFTR signal intensity per cell compared to buffer control ± standard deviation (HeLa cells) | Diameter (nm) [2] | PDI [2] |
| --- | --- | --- | --- | --- |
| CC(C)CCC[C@@H](C)[C@H]1CC[C@H]2[C@@H]3CC=C4C[C@@H](OC(=O)CCCC(=O)N(CCCN)CCCCNCCCN)CC[C@]4(C)[C@H]3CC[C@]12C.Cl.Cl.Cl [SA58, (3S,8S,9S,10R,13R,14S,17R)-10,13-Dimethyl-17-((R)-6-methylheptan-2-yl)-2,3,4,7,8,9,10,11,12,13,14,15,16,17-tetradecahydro-1H-cyclopenta[a]phenanthren-3-yl 5-((3-aminopropyl)(4-((3-aminopropyl)amino)butyl)amino)-5-oxopentanoate trihydrochloride] | 99.6% | 4.5 ± 0.3 fold-change | 71.6 nm | 0.10 |
| CC(C)CCC[C@@H](C)[C@H]1CC[C@H]2[C@@H]3CC=C4C[C@@H](OC(=O)N(CCCCCCCCN(C)C)CCCN(C)C)CC[C@]4(C)[C@H]3CC[C@]12C [SA64, (3S,8S,9S,10R,13R,14S,17R)-10,13-dimethyl-17-((R)-6-methylheptan-2-yl)-2,3,4,7,8,9,10,11,12,13,14,15,16,17-tetradecahydro-1H-cyclopenta[a]phenanthren-3-yl (8-(dimethylamino)octyl)(3-(dimethylamino)propyl)carbamate] | 99.1% | 9.1 ± 0.6 fold-change | 67.8 nm | 0.09 |
| CC(C)CCC[C@@H](C)[C@H]1CC[C@H]2[C@@H]3CC=C4C[C@@H](OC(=O)N(CCCCOCCCN(C)C)CCCN(C)C)CC[C@]4(C)[C@H]3CC[C@]12C [SA67, (3S,8S,9S,10R,13R,14S,17R)-10,13-dimethyl-17-((R)-6-methylheptan-2-yl)-2,3,4,7,8,9,10,11,12,13,14,15,16,17-tetradecahydro-1H-cyclopenta[a]phenanthren-3-yl (4-(3-(dimethylamino)propoxy)butyl)(3-(dimethylamino)propyl)carbamate] | 99.2% | 7.7 ± 0.7 fold-change | 72.8 nm | 0.10 |
| CC(C)CCC[C@@H](C)[C@H]1CC[C@H]2[C@@H]3CC=C4C[C@@H](OC(=O)CN(CCCCCCCCN)C(=O)[C@@H](N)CCCCN)CC[C@]4(C)[C@H]3CC[C@]12C.Cl.Cl.Cl [SA130, (3S,8S,9S,10R,13R,14S,17R)-10,13-dimethyl-17-((R)-6-methylheptan-2-yl)-2,3,4,7,8,9,10,11,12,13,14,15,16,17-tetradecahydro-1H-cyclopenta[a]phenanthren-3-yl N-(L-lysyl)-N-(8-aminooctyl)glycinate trihydrochloride] | 95.7% | 1.0 ± 0 fold-change | 85.7 nm | 0.18 |
| CC(C)CCC[C@@H](C)[C@H]1CC[C@H]2[C@@H]3CC=C4C[C@@H](OC(=O)N(CCCCN(C)CCCN(C)C)CCCN(C)C)CC[C@]4(C)[C@H]3CC[C@]12C [SA68, (3S,8S,9S,10R,13R,14S,17R)-10,13-dimethyl-17-((R)-6-methylheptan-2-yl)-2,3,4,7,8,9,10,11,12,13,14,15,16,17-tetradecahydro-1H-cyclopenta[a]phenanthren-3-yl (3-(dimethylamino)propyl)(4-((3-(dimethylamino)propyl)(methyl)amino)butyl)carbamate] | 99.2% | 8.9 ± 0.4 fold-change | 74.6 nm | 0.12 |
| CC(C)CCC[C@@H](C)[C@H]1CC[C@H]2[C@@H]3CC=C4C[C@@H](OC(=O)[C@H](C)N(CCCN)CCCCNCCCN)CC[C@]4(C)[C@H]3CC[C@]12C [SA73, (3S,8S,9S,10R,13R,14S,17R)-10,13-Dimethyl-17-((R)-6-methylheptan-2-yl)-2,3,4,7,8,9,10,11,12,13,14,15,16,17-tetradecahydro-1H-cyclopenta[a]phenanthren-3-yl N-(3-aminopropyl)-N-(4-((3-aminopropyl)amino)butyl)alaninate trihydrochloride] | 100% | 9.4 ± 0.6 fold-change | 92.8 nm | 0.16 |
| CC(C)CCC[C@@H](C)[C@H]1CC[C@H]2[C@@H]3CC=C4C[C@@H](OC(=O)CC(=O)N(CCCN(C)C)CCCN(C)C)CC[C@]4(C)[C@H]3CC[C@]12C.Cl.Cl [SA50, (3S,8S,9S,10R,13R,14S,17R)-10,13-Dimethyl-17-((R)-6-methylheptan-2-yl)-2,3,4,7,8,9,10,11,12,13,14,15,16,17-tetradecahydro-1H-cyclopenta[a]phenanthren-3-yl 3-(bis(3-(dimethylamino)propyl)amino)-3-oxopropanoate dihydrochloride] | 99.3% | 7.1 ± 0.4 fold-change | 77.1 nm | 0.11 |
| CC(C)CCC[C@@H](C)[C@H]1CC[C@H]2[C@@H]3CC=C4C[C@@H](OC(=O)CCCC(=O)N(CCCN(C)C)CCCN(C)C)CC[C@]4(C)[C@H]3CC[C@]12C.Cl.Cl [SA51, (3S,8S,9S,10R,13R,14S,17R)-10,13-Dimethyl-17-((R)-6-methylheptan-2-yl)-2,3,4,7,8,9,10,11,12,13,14,15,16,17-tetradecahydro-1H-cyclopenta[a]phenanthren-3-yl 5-(bis(3-(dimethylamino)propyl)amino)-5-oxopentanoate dihydrochloride] | 98.4% | 6.5 ± 0.4 fold-change | 74.3 nm | 0.15 |
| CC(C)CCC[C@@H](C)[C@H]1CC[C@H]2[C@@H]3CC=C4C[C@@H](OC(=O)CCCC(=O)N(CCCCNCCC(C)(C)N)CCC(C)(C)N)CC[C@]4(C)[C@H]3CC[C@]12C [SA121, (3S,8S,9S,10R,13R,14S,17R)-10,13-dimethyl-17-((R)-6-methylheptan-2-yl)-2,3,4,7,8,9,10,11,12,13,14,15,16,17-tetradecahydro-1H-cyclopenta[a]phenanthren-3-yl 5-((3-amino-3-methylbutyl)(4-((3-amino-3-methylbutyl)amino)butyl)amino)-5-oxopentanoate trihydrochloride] | 97.4% | 16.2 ± 1.8 fold-change | 79.2 nm | 0.14 |
